Laboratory results reported in ChEMBL document CHEMBL5727499, “Derivatives and methods of treating hepatitis B infections” (2020).
“Also recorded” adds a separate entry of the source.

Assay: HBV Replication Inhibition Assay: HBV replication inhibition by the compounds of this invention could be determined in cells infected or transfected with HBV, or cells with stably integrated HBV, such as HepG2.2.15 cells (Sells et al. 1987). In this example, HepG2.2.15 cells were maintained in cell culture medium containing 10% fetal bovine serum (FBS), Geneticin, L-glutamine, penicillin and streptomycin. HepG2.2.15 cells could be seeded in 96-well plates at a density of 40,000 cells/well and be treated with serially diluted compounds at a final DMSO concentration of 0.5% either alone or in combination by adding drugs in a checker box format. Cells were incubated with compounds for three days, after which medium was removed and fresh medium containing compounds was added to cells and incubated for another three days. At day 6, supernatant was removed and treated with DNase at 37° C. for 60 minutes, followed by enzyme inactivation at 75° C. for 15 minutes. Encapsidated HBV DNA was released from the virions and covalently linked HBV polymerase by incubating in lysis buffer (Affymetrix QS0010) containing 2.5 μg proteinase K at 50° C. for 40 minutes. HBV DNA was denatured by addition of 0.2 M NaOH and detected using a branched DNA (BDNA) QuantiGene assay kit according to manufacturer recommendation (Affymetrix). HBV DNA levels could also be quantified using qPCR, based on amplification of encapsidated HBV DNA extraction with QuickExtraction Solution (Epicentre Biotechnologies) and amplification of HBV DNA using HBV specific PCR probes that can hybridize to HBV DNA and a fluorescently labeled probe for quantitation. In addition, cell viability of HepG2.2.15 cells incubated with test compounds alone or in combination was determined by using CellTitre-Glo reagent according to the manufacturer protocol (Promega). The mean background signal from wells containing only culture medium was subtracted from all other samples, and percent inhibition at each compound concentration was calculated by normalizing to signals from HepG2.2.15 cells treated with 0.5% DMSO using equation E1.% inhibition=(DMSOave−Xi)/DMSOave×100% E1:where DMSOave is the mean signal calculated from the wells that were treated with DMSO control (0% inhibition control) and Xi is the signal measured from the individual wells. EC50 values, effective concentrations that achieved 50% inhibitory effect, were determined by non-linear fitting using Graphpad Prism software (San Diego, Calif.) and equation E2Y=Y min+(Y max−Y min)/(1+10(Log EC50−X)×HillSlope) E2:where Y represents percent inhibition values and X represents the logarithm of compound concentrations.
Details: not given

| Structure (SMILES) | EC50 |
| --- | --- |
| Cc1cc(NC(=O)N2Cc3c(C4CCCC4)n[nH]c3CC2C)ccc1F (stereo not drawn) | in the range around 55 nM |
| CC1Cc2[nH]nc(C3CCC3)c2CN1C(=O)Nc1cccc(C#N)c1F (stereo not drawn) | in the range around 300 nM |
| CC1Cc2[nH]nc(C3CCCC3)c2CN1C(=O)Nc1cccc(Cl)c1 (stereo not drawn) | in the range around 55 nM |
| Cc1cc(NC(=O)N2Cc3c(C4CCCO4)n[nH]c3CC2C)ccc1F (stereo not drawn) | in the range around 55 nM; also recorded: in the range around 300 nM |
| CC1Cc2[nH]nc(C3CCCC3)c2CN1C(=O)Nc1ccnc(Br)c1F (stereo not drawn) | in the range around 55 nM |
| CC1Cc2[nH]nc(C3CCC3)c2CN1C(=O)Nc1ccnc(Br)c1F (stereo not drawn) | in the range around 300 nM |
| CC1Cc2[nH]nc(C3CCCO3)c2CN1C(=O)Nc1ccc(F)c(Br)c1 (stereo not drawn) | in the range around 55 nM; also recorded: in the range around 300 nM |
| CC1Cc2[nH]nc(C3CCCC3)c2CN1C(=O)Nc1cccc(Br)c1 (stereo not drawn) | in the range around 55 nM |
| CC1Cc2[nH]nc(C3CCCC3)c2CN1C(=O)Nc1ccc(F)c(Br)c1 (stereo not drawn) | in the range around 55 nM |
| CC1Cc2[nH]nc(C3CCCO3)c2CN1C(=O)Nc1ccc(F)c(C#N)c1 (stereo not drawn) | in the range around 300 nM |
| CC1Cc2[nH]nc(C3CCCO3)c2CN1C(=O)Nc1ccc(F)c(Cl)c1 (stereo not drawn) | in the range around 55 nM |
| CC1Cc2[nH]nc(C3CCCC3)c2CN1C(=O)Nc1ccc(F)c(C#N)c1 (stereo not drawn) | in the range around 55 nM |
| Cc1cccc(NC(=O)N2Cc3c(C4CCCC4)n[nH]c3CC2C)c1 (stereo not drawn) | in the range around 55 nM |
| CC1Cc2[nH]nc(C3CCCC3)c2CN1C(=O)Nc1ccc(F)c(Cl)c1 (stereo not drawn) | in the range around 55 nM |

Same assay, conditions: HepG2.2.15

| Structure (SMILES) | EC50 |
| --- | --- |
| N#Cc1cc(NC(=O)N2CCc3[nH]nc(C45CCCC4C5)c3C2)ccc1F (stereo not drawn) | in the range around 55 nM |
| Cc1cc(NC(=O)N2Cc3c(C4CCCC4)n[nH]c3CC2C)ccc1F (stereo not drawn) | in the range around 55 nM |
| Cc1cc(NC(=O)N2CCc3[nH]nc(C45CCCC4C5)c3C2)ccc1F (stereo not drawn) | in the range around 55 nM |
| C=C(C)c1n[nH]c2c1CN(C(=O)Nc1cccc(C)c1)CC2 | in the range around 300 nM |
| N#Cc1cc(NC(=O)N2CCc3[nH]nc(C4CCC4)c3C2)ccc1F | in the range around 55 nM |
| O=C(Nc1cccc(Cl)c1)N1CCc2[nH]nc(C3=CCCCC3)c2C1 | in the range around 55 nM |
| O=C(Nc1ccc(F)c(F)c1)N1CCc2[nH]nc(C34CCCC3C4)c2C1 (stereo not drawn) | in the range around 300 nM |
| CCCC(F)(F)c1n[nH]c2c1CN(C(=O)Nc1cccc(Cl)c1)CC2 | in the range around 55 nM |
| C=C(C)c1n[nH]c2c1CN(C(=O)Nc1cccc(Br)c1F)CC2 | in the range around 55 nM |
| O=C(Nc1ccc(F)c(Br)c1)N1CCc2[nH]nc(C3CCC3)c2C1 | in the range around 55 nM |
| CCCc1n[nH]c2c1CN(C(=O)Nc1cccc(Cl)c1)CC2 | in the range around 300 nM |
| CC1Cc2[nH]nc(C3CCC3)c2CN1C(=O)Nc1cccc(C#N)c1F (stereo not drawn) | in the range around 300 nM |
| O=C(Nc1ccc(F)c(Cl)c1)N1CCc2[nH]nc(C34CCCC3C4)c2C1 (stereo not drawn) | in the range around 55 nM |
| CC1Cc2[nH]nc(C3CCC3)c2CN1C(=O)Nc1cccc(Br)c1F (stereo not drawn) | in the range around 300 nM |
| CC1Cc2[nH]nc(C3CCC3)c2CN1C(=O)Nc1ccc(F)c(C#N)c1 (stereo not drawn) | in the range around 55 nM |
| CCC(F)(F)c1n[nH]c2c1CN(C(=O)Nc1cccc(Cl)c1)CC2 | in the range around 300 nM |
| CC(C)(O)c1n[nH]c2c1CN(C(=O)Nc1cccc(Cl)c1)CC2 | > 10000 nM |
| CC1Cc2[nH]nc(C3CCC3)c2CN1C(=O)Nc1cccc(Br)c1 (stereo not drawn) | in the range around 55 nM |
| CC1Cc2[nH]nc(C3CCCC3)c2CN1C(=O)Nc1cccc(Cl)c1 (stereo not drawn) | in the range around 55 nM |
| CC1(c2n[nH]c3c2CN(C(=O)Nc2cccc(Cl)c2)CC3)CCC1 | in the range around 55 nM |
| CC1Cc2[nH]nc(C3CCCC3)c2CN1C(=O)Nc1ccnc(Br)c1F (stereo not drawn) | in the range around 55 nM |
| O=C(Nc1cccc(Cl)c1)N1CCc2[nH]nc(C3CCOCC3)c2C1 | in the range around 300 nM |
| O=C(Nc1cccc(Cl)c1)N1CCc2[nH]nc(N3CCCC3)c2C1 | in the range around 300 nM |
| CC1Cc2[nH]nc(C3CCC3)c2CN1C(=O)Nc1ccnc(Br)c1F (stereo not drawn) | in the range around 300 nM |
| CC1Cc2[nH]nc(C3CCCO3)c2CN1C(=O)Nc1cccc(Br)c1 (stereo not drawn) | in the range around 55 nM |

| Structure (SMILES) | EC50 |
| --- | --- |
| O=C(Nc1ccnc(Br)c1F)N1CCc2[nH]nc(C34CCCC3C4)c2C1 (stereo not drawn) | in the range around 55 nM |
| O=C(Nc1cccc(Cl)c1)N1CCc2[nH]nc(O)c2C1 | > 10000 nM |
| O=C(Nc1cccc(Cl)c1)N1CCc2[nH]nc(C3CCCC3)c2C1 | in the range around 55 nM |
| Cc1cccc(NC(=O)N2CCc3[nH]nc(C4CCC4)c3C2)c1 | in the range around 300 nM |
| C=C(C)c1n[nH]c2c1CN(C(=O)Nc1cccc(Cl)c1)CC2 | in the range around 55 nM |
| C=C(C)c1n[nH]c2c1CN(C(=O)Nc1ccnc(Cl)c1F)CC2 | in the range around 300 nM |
| O=C(Nc1ccc(F)c(Br)c1)N1CCc2[nH]nc(C34CCCC3C4)c2C1 (stereo not drawn) | in the range around 55 nM |
| O=C(Nc1cccc(Cl)c1)N1CCc2[nH]nc(C3CCC(O)C3)c2C1 (stereo not drawn) | in the range around 300 nM |
| CC1Cc2[nH]nc(C3CCCC3)c2CN1C(=O)Nc1cccc(Br)c1 (stereo not drawn) | in the range around 55 nM |
| CC1(c2n[nH]c3c2CN(C(=O)Nc2cccc(Cl)c2)CC3)CC1 | in the range around 300 nM |
| O=C(Nc1cccc(Cl)c1)N1CCc2[nH]nc(C34CCCC3C4)c2C1 (stereo not drawn) | in the range around 55 nM |
| CC1Cc2[nH]nc(C3CCCC3)c2CN1C(=O)Nc1ccc(F)c(Br)c1 (stereo not drawn) | in the range around 55 nM |
| Cc1cccc(NC(=O)N2Cc3c(C4CCC4)n[nH]c3CC2C)c1 (stereo not drawn) | in the range around 55 nM |
| CC1Cc2[nH]nc(C3CCCO3)c2CN1C(=O)Nc1ccc(F)c(C#N)c1 (stereo not drawn) | in the range around 300 nM |
| Cc1cccc(NC(=O)N2Cc3c(C4CCCO4)n[nH]c3CC2C)c1 (stereo not drawn) | in the range around 300 nM |
| O=C(Nc1cccc(Br)c1)N1CCc2[nH]nc(C34CCCC3C4)c2C1 (stereo not drawn) | in the range around 55 nM |
| O=C(Nc1ccc(F)c(Cl)c1)N1CCc2[nH]nc(C3CCC3)c2C1 | in the range around 55 nM |
| Cc1cc(NC(=O)N2Cc3c(C4CCC4)n[nH]c3CC2C)ccc1F (stereo not drawn) | in the range around 55 nM |
| O=C(Nc1cccc(Br)c1F)N1CCc2[nH]nc(C34CCCC3C4)c2C1 (stereo not drawn) | in the range around 55 nM |
| O=C(Nc1ccc(F)c(F)c1)N1CCc2[nH]nc(C3CCC3)c2C1 | in the range around 300 nM |
| Cc1cccc(NC(=O)N2CCc3[nH]nc(C45CCCC4C5)c3C2)c1 (stereo not drawn) | in the range around 55 nM |
| CC1Cc2[nH]nc(C3CCC3)c2CN1C(=O)Nc1ccc(F)c(Br)c1 (stereo not drawn) | in the range around 55 nM |
| CC1Cc2[nH]nc(C3CCC3)c2CN1C(=O)Nc1ccc(F)c(F)c1 (stereo not drawn) | in the range around 55 nM |
| O=C(Nc1cccc(Br)c1)N1CCc2[nH]nc(C3CCC3)c2C1 | in the range around 55 nM |
| O=C(Nc1cccc(Cl)c1)N1CCc2[nH]nc(C3CC3)c2C1 | in the range around 300 nM |

| Structure (SMILES) | EC50 |
| --- | --- |
| O=C(Nc1ccnc(Cl)c1F)N1CCc2[nH]nc(C3CCC3)c2C1 | in the range around 300 nM |
| O=C(Nc1cccc(Cl)c1)N1CCc2[nH]nc(C3=CCOCC3)c2C1 | in the range around 300 nM |
| O=C(Nc1cccc(Cl)c1)N1CCc2[nH]nc(C3=CC(F)CC3)c2C1 (stereo not drawn) | in the range around 55 nM |
| CC1Cc2[nH]nc(C3CCCO3)c2CN1C(=O)Nc1ccc(F)c(Cl)c1 (stereo not drawn) | in the range around 55 nM |
| Cc1cc(NC(=O)N2CCc3[nH]nc(C4CCC4)c3C2)ccc1F | in the range around 55 nM |
| CC1Cc2[nH]nc(C3CCCC3)c2CN1C(=O)Nc1ccc(F)c(C#N)c1 (stereo not drawn) | in the range around 55 nM |
| O=C(Nc1ccnc(Cl)c1F)N1CCc2[nH]nc(C34CCCC3C4)c2C1 (stereo not drawn) | in the range around 55 nM |
| O=C(Nc1cccc(Cl)c1)N1CCc2[nH]nc(C3CC=CC3)c2C1 | in the range around 55 nM |
| CC1Cc2[nH]nc(C3CCCO3)c2CN1C(=O)Nc1cccc(Cl)c1 (stereo not drawn) | in the range around 55 nM |
| O=C(Nc1cccc(Cl)c1)N1CCc2[nH]nc(C3CCCO3)c2C1 (stereo not drawn) | in the range around 55 nM |
| O=C(Nc1cccc(Cl)c1)N1CCc2[nH]nc(C3(C(F)(F)F)CC3)c2C1 | in the range around 300 nM |
| Cc1cccc(NC(=O)N2Cc3c(C4CCCC4)n[nH]c3CC2C)c1 (stereo not drawn) | in the range around 55 nM |
| CC1Cc2[nH]nc(C3CCCC3)c2CN1C(=O)Nc1ccc(F)c(Cl)c1 (stereo not drawn) | in the range around 55 nM |
| N#Cc1cccc(NC(=O)N2CCc3[nH]nc(C45CCCC4C5)c3C2)c1F (stereo not drawn) | in the range around 55 nM |
| CC(C)c1n[nH]c2c1CN(C(=O)Nc1cccc(Cl)c1)CC2 | in the range around 300 nM |
| O=C(Nc1ccnc(Br)c1F)N1CCc2[nH]nc(C3CCC3)c2C1 | in the range around 300 nM |
| O=C(Nc1cccc(Cl)c1)N1CCc2[nH]nc(C3=CCCC3)c2C1 | in the range around 55 nM |
| CC1Cc2[nH]nc(C3CCCO3)c2CN1C(=O)Nc1ccnc(Br)c1F (stereo not drawn) | 750 nM |
| CC(C)(C)c1n[nH]c2c1CN(C(=O)Nc1cccc(Cl)c1)CC2 | in the range around 300 nM |
| O=C(Nc1cccc(Cl)c1)N1CCc2[nH]nc(Br)c2C1 | > 10000 nM |
| CC(CO)c1n[nH]c2c1CN(C(=O)Nc1cccc(Cl)c1)CC2 (stereo not drawn) | > 10000 nM |
| O=C(Nc1cccc(Cl)c1)N1CCc2[nH]nc(C3CCC3)c2C1 | in the range around 55 nM |
| O=C(Nc1cccc(Br)c1F)N1CCc2[nH]nc(C3CCC3)c2C1 | in the range around 55 nM |
| CCC(C)(C)c1n[nH]c2c1CN(C(=O)Nc1cccc(Cl)c1)CC2 | in the range around 300 nM |
